Values joined by “and” are separate entries in the source; they are usually repeats but may differ in a detail not shown here. Equal entries are not always repeated.
Tests used:
[1] = biological target: T1, canine TRPM8 (Canis lupus familiaris, UniProt Q1A7N1); assay: In vitro canine TRPM8 functional assay (Ca2+-sensitive dye, icilin activation; Table 4 TRPM8 Screening); type: cell-based; conditions: HEK293 cells expressing canine TRPM8, icilin activation; for % I (0.5 μM): compound at 0.5 μM
T1 construct: expressed in transfected cells
T1 sequence (Q1A7N1 1-1104): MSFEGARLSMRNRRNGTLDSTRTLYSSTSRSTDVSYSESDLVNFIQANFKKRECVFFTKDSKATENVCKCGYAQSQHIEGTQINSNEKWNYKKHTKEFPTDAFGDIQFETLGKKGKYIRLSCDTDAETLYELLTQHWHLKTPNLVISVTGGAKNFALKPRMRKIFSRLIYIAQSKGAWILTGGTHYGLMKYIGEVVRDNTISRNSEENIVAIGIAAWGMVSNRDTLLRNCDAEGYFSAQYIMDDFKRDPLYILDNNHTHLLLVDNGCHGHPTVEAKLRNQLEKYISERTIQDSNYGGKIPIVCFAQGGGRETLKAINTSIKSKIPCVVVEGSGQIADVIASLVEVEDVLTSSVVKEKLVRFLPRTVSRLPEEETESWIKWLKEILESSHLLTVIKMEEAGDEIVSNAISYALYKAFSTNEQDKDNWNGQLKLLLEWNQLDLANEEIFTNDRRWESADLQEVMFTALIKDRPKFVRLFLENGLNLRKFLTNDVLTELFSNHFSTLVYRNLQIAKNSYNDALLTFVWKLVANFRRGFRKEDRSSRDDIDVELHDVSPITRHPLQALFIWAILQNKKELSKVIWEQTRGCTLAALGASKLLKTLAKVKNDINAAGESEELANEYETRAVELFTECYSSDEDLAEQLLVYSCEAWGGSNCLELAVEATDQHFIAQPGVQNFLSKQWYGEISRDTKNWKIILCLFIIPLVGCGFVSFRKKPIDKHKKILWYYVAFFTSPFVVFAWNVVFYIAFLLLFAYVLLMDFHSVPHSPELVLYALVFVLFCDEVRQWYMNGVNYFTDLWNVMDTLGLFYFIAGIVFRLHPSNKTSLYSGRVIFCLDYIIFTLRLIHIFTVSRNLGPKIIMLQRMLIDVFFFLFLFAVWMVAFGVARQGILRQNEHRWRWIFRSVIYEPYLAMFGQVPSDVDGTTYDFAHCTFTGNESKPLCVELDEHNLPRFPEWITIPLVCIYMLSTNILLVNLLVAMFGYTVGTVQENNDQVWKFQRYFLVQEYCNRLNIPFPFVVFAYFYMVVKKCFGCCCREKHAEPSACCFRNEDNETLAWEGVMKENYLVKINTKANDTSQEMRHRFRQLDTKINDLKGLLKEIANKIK
Protocol: The functional activity of compounds of Formula (I) was determined by measuring changes in intracellular calcium concentration using a Ca^2+-sensitive fluorescent dye. The changes in fluorescent signal were monitored by a fluorescence plate reader, either a FLIPR™ (Molecular Devices) or FDSS (Hamamatsu).
HEK293 cells stably expressing canine TRPM8 were routinely grown as monolayers in Dulbecco's minimum essential medium supplemented with 10% FBS, 1 mM L-glutamine, 100 units/mL penicillin, 100 ug/mL streptomycin and 400 μg/mL G418. Cells were maintained in 5% CO2 at 37° C. At 24 hrs prior to assay, cells were seeded in clear-base poly-D-lysine coated 384-well plates (BD Biosciences, NJ, USA) at a density of 5,000 cells per well in culture medium and grown overnight in 5% CO2 at 37° C. On assay day, growth media was removed and cells were loaded with Calcium 3 Dye (Molecular Devices) for 35 min at 37° C., under 5% CO2 and then for 25 min at room temperature and atmosphere. Subsequently, cells were tested for agonist-induced increases in intracellular Ca^2+ levels using FLIPR™ or FDSS. Cells were challenged with a compound of Formula (I) (at varying concentrations) and intracellular Ca^2+ was measured for 5 min prior to the addition of icilin to all wells to achieve a final concentration which produces approximately an 80% maximal response.
Basal FI was subtracted prior to normalizing data to percent of maximal response. Curves were generated using the average of quadruplicate wells for each data point, were analyzed using nonlinear regression of either sigmoidal dose response or sigmoidal dose response (variable slope). Finally, the EC50 and IC50 values were calculated with the best-fit dose curve determined by GraphPad Prism.

[2] = test system: rats; assay: Reversal of icilin-induced behaviors in rats; type: in vivo, rat; conditions: 30 mg/kg p.o., 1 h post-icilin
Protocol: In this paradigm, icilin-induced shaking was counted for 10 minutes followed by administration of a compound of Formula (I). The diminution of shaking behavior is represented as a percent inhibition relative to icilin-induced shakes in the absence of test compound administration, as described by the following formula: % Inhibition=[1−(WDS count following test compound dose/WDS count prior to test compound dose)]×100.

[3] = test system: Sprague-Dawley rats; assay: CFA-induced paw radiant heat hypersensitivity; type: in vivo, rat; conditions: 30 mg/kg p.o.
Protocol: Intraplantar injection of Complete Freund's Adjuvant (CFA) in rodents results in a long-lasting inflammatory reaction, characterized by a pronounced hypersensitivity to both thermal and mechanical stimuli. This hypersensitivity peaks between 24-72 hours following injection and can last for several weeks. […] This paradigm also may be conducted with a multiple dosing or a prophylactic dosing regime designed to alter the course of hyperalgesia development. This test predicts the analgesic, anti-allodynic and antihyperalgesic effect of numerous effective clinical agents, including NSAIDS such as acetaminophen, aspirin and ibuprofen, and opioids such as morphine.
Each rat was placed in a test chamber on a warm glass surface and allowed to acclimate for approximately 10 minutes. A radiant thermal stimulus (beam of light) was then focused through the glass onto the plantar surface of each hind paw in turn. The thermal stimulus was automatically shut off by a photoelectric relay when the paw was moved or when the cut-off time was reached (20 seconds for radiant heat at ˜5 Amps). An initial (baseline) response latency to the thermal stimulus was recorded for each animal prior to the injection of CFA. Twenty-four hours following intraplantar CFA injection, the response latency of the animal to the thermal stimulus was then re-evaluated and compared to the animal's baseline response time. […] Immediately following the post-CFA latency assessment, test compound or vehicle (usually Solutol, hydroxypropyl methylcellulose, hydroxypropyl beta-cyclodextrin or PEG-400) was administered i.p. or p.o. to rats. […] The percent reversal (% R) of hypersenstivitiy was calculated according to the following formula: % Reversal=(Treatment Response−CFA Response)/(Baseline Response−CFA Response)×100.

[4] = test system: male SD rats; assay: Chronic constriction injury (CCI)-induced model of neuropathic pain, acetone-induced hypersensitivity; type: in vivo, rat; conditions: 30 mg/kg p.o., preRx 1 hr
Protocol: Through the mesh floor a series of five applications of acetone (0.05 mL/application) was sprayed onto the bottom of the paw using a multidose syringe device. A positive response took the form of an abrupt withdrawal or lifting of the paw. The percentage of positive responses from the five trials represented the individual's overall response that was then averaged over the entire treatment group. […] An ascending dose response relationship (as in Table 10 below) was generated by addition of successive doses of test compound followed by re-assessment of behavior.

[5] = biological target: T1, canine TRPM8; assay: TRPM8 patch clamp assays; type: cell-based; conditions: whole-cell patch clamp, HEK293
Protocol: For patch clamp experiments, HEK293 cells stably transfected with canine TRPM8 were cultured in DMEM supplemented with 10% fetal bovine serum, 100 units/ml penicillin, 100 μg/ml streptomycin and 1 mg/ml G418. Cells were maintained at 37° C. and in 5% CO2.
The extracellular solution contained (in mM): NaCl, 132; EGTA, 1; KCl, 5.4; MgCl2, 0.8; HEPES, 10; glucose, 10; pH=7.4. Recordings were performed using the conventional whole-cell patch clamp technique, 1-2 days after plating cells onto glass coverslips at densities appropriate for single cell recording. Currents were amplified by a patch clamp amplifier and filtered at 2 kHz (Axopatch 200B, Molecular Devices, Union City, Calif.). Menthol (100 μM) was applied to the cell at 0.5 ml/min via a gravity-fed perfusion system. […]
In experiments where temperatures were varied, temperature ramps were generated by cooling the perfusate in an in-line cooler (Model SC-20, Warner Instruments, Hamden, Conn.) controlled by a temperature controller (Model CL-100, Warner Instruments). The temperature in the vicinity of the recorded cell was measured with a custom-made miniature thermo-microprobe connected to a monitoring thermometer (Model TH-8, Physitemp, Clifton, N.J.), and sampled using Digidata 1322A and pClamp 9.0 (Molecular Devices), as were the currents concurrently measured in the whole-cell patch clamp mode. […]

## (S)-[1-(3-Bromo-benzo[b]thiophen-2-yl)-2-(4-fluoro-phenyl)ethyl]-phosphonic acid diisopropyl ester [Cpd 239]
[1]
  % I (0.5 μM): 103, 103%
[1]; eight-point dose-response
  IC50: 37 nM and 27 nM and 31 nM
[2]
  % Inhibition: 48.4%
[3]; time 2 h
  % Reversal: 36%
[4]
  % of Allodynic Baseline: 29.4%
[5]; read-out: Cold (10° C.) IC50, mode of activation cold 10° C.
  IC50: 5.8 nM
[5]; read-out: Menthol (100 μM) IC50, mode of activation menthol 100 μM, 22° C.
  IC50: 3 nM

## CC(C)OP(=O)(OC(C)C)C(Cc1ccc(F)cc1)c1sc2ccccc2c1Br (stereo not drawn) [Cpd 197]
[1]; compound at 1 μM
  % I (1 μM): 100%
[3]; time 2 h
  % Reversal: 23%

## CCOP(=O)(OCC)C(Cc1ccc(F)c(C(F)(F)F)c1)c1sc2ccccc2c1Cl (racemic) [Cpd 298]
[1]
  % I (0.5 μM): 99%
[3]; time 1 h
  % Reversal: 20%

## (S)-[1-(3-Bromo-benzo[b]thiophen-2-yl)-2-(4-trifluoromethoxy-phenyl)-ethyl]-phosphonic acid diisopropyl ester [Cpd 236]
[3]; time 2 h
  % Reversal: 25%

## CC(C)OP(=O)(OC(C)C)C(Cc1ccc(C(F)(F)F)cc1)c1sc2ccccc2c1Br (stereo not drawn) [Cpd 336]
[3]; time 1 h
  % Reversal: 64%

## CCOP(=O)(OCC)C(Cc1ccc(F)c(Cl)c1)c1sc2ccccc2c1Br (racemic) [Cpd 244]
[3]; time 2 h
  % Reversal: 45%

## CCOP(=O)(OCC)C(Cc1ccc(SC)cc1)c1sc2ccccc2c1Cl (racemic) [Cpd 299]
[3]; time 1 h
  % Reversal: 23%
